Test results published in patent US20250312320A1, “METHOD AND TREATMENT FOR OSTEOARTHRITIS AND DISEASES OF CHONDROCYTE HYPERTROPHY” (The Royal Veterinary College, priority 2022, published 2025).

Tested on: ATDC5 micromass
Test: Dose response of CDK8 inhibitors on ATDC5 micromass (alizarin red / alcian blue)
Format: cell-based, mouse
Settings: day 14
Method: In brief, 2 μl micromasses were seeded in a 96-well plate and cultured as previous in the presence of BI1347 and additional CDK8i compounds namely BRD6989, AS2863619, SEL120-34A, MSC2530818 and CCT251545. Compound concentrations were titrated 10-fold from 10 μM down to 0.1 nM. On day 14 micromasses were fixed, stained and subsequently leached to allow for dose response analysis to be conducted.
In brief, 2 μl micromasses were seeded on a 96-well plate and cultured as previous in the presence of BI1347 and additional Mediator kinase inhibitor compounds namely BRD6989, AS2863619, SEL120-34A, MSC2530818 and CCT251545. Compound concentrations were titrated 10-fold from 10 μM down to 0.1 nM. On day 14 micromasses were fixed, stained and subsequently leached to allow for dose response analysis to be conducted.

Compound | alcian blue staining (GAG deposition) (highest concentration of 10 μM) | alcian blue staining (GAG deposition) (all concentrations (10 μM down to 0.1 nM))
Cc1nc2ccc(-n3c(-c4nonc4N)nc4cnccc43)cc2[nH]1.Cl.Cl [AS2863619] | modestly reduced | 
Cc1c(Br)c(Br)c2c3c1nc(N1CCNCC1)n3CCC2.Cl [SEL120-34A] | modestly reduced | 
CC1CCc2nc(N)c(C#N)c(-c3cccnc3)c2C1 (stereo not shown) [BRD6989] |  | maintained
Cn1cc(-c2ccc(-c3cncc(Cl)c3N3CCC4(CCNC4=O)CC3)cc2)cn1 [CCT251545] | modestly reduced | 
